Experimental data published in patent US8686113B2 (priority 2009, dated 2014).
Converted amounts (≈) assume the structure as drawn. Where two headings read alike, the source gives them in different places. Non-standard residues stand in square brackets, D forms with d. Residues, ends and D or L forms follow the SMILES beside them. Hyp = O=C(O)[C@@H]1C[C@@H](O)CN1; Orn = NCCC[C@H](N)C(=O)O

Key:
[1] = tested on: Escherichia coli DSM 10233
Description: (§1) The minimum inhibitory concentrations (MIC) of the antimicrobial peptides and peptide derivatives were determined in microdilution assays. These used a continuous peptide dilution in sterile flat-bottomed 96-well microtiter plates (polystyrene, Greiner Bio-One GmbH, Frickenhausen, Germany) and a total volume of 100 μL per well. The aqueous peptide or peptidomimetic solutions were diluted with 1% TSB water, to obtain a final concentration of 256 μg/mL. 50 μL of the peptide or peptidomimetic solution was pipetted into the first well of each series and stirred. From this solution, 50 μL was transferred to the second well, stirred and again 50 μL was transferred to the next well, and so on. A double dilution series is obtained, beginning at 256 μg/mL in the first well to 125 ng/mL in the twelfth well. The bacteria, e.g. E. coli BL21 A1, were cultured overnight at 37° C. in nutrient broth (NB, Carl Roth GmbH+Co. KG, Karlsruhe, Germany). 50 μL of a 5×10^6 bacteria/mL suspension in 1% TSB was added to each well of the microtiter plate and thus a final concentration of the peptides or peptidomimetics from 128 μg/mL (well 1) to 62.5 ng/mL (well 12) was established in each series. The plates were incubated at 37° C. for 20 h and then the absorption was measured at 595 nm with a TECAN microtiter plate spectrophotometer (Tecan Trading AG, Mannedorf, Switzerland). The MIC values of all peptides and peptidomimetics were determined in triplicate. Sterile water was used as negative control.
The peptides shown in Table 8 were investigated for their MIC against pathogenic bacteria such as E. coli DSM 10233, K. pneumoniae DSM 681 and P. aeruginosa DSM 3227.

E. coli BL21 A1 = type: cell-based, Escherichia coli; conditions: BL21, 20 h
How it was run: (§2)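 Broth microdilution in 1% TSB with twofold peptide series, final 128 μg/mL to 62.5 ng/mL, against 5×10^6 bacteria/mL stock suspension added 1:1. Incubated 20 h at 37 °C, growth read by absorbance at 595 nm; MIC is the lowest concentration with no growth, determined in triplicate.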

M. luteus 10240 = test: Growth inhibition assay (microdilution MIC); type: cell-based, Micrococcus luteus; conditions: 10240, 20 h
How it was run: as §2

E. coli 045-849 SENTRY = conditions: 045-849 SENTRY
Description: as §1
(§3) The tests were in this case carried out in Mueller-Hinton medium (¼ concentrated), which is equivalent to 1% TSB.

E. coli ATCC BAA-457 = conditions: ¼ Muller-Hinton medium
Description: as §1, §3

E. coli D31 J. Wilson = conditions: ¼ Muller-Hinton medium
Description: as §1, §3

K. pneumoniae 012-3131 = tested on: K. pneumoniae 012-3131
Description: as §1, §3

K. pneumoniae ATCC 27799 = tested on: K. pneumoniae ATCC 27799
Description: as §1, §3

[2] = tested on: K. pneumoniae K6 ATCC 700603
Description: as §1, §3

| MIC E. coli DSM 10233 [1] | Compound | MIC E. coli BL21 A1 (E. coli BL21 A1) | MIC M. luteus 10240 (M. luteus 10240) | MIC E. coli 045-849 SENTRY (E. coli 045-849 SENTRY) | MIC E. coli SEQ 102ATCC # BAA-4 57 (E. coli ATCC BAA-457) | MIC E. coli D31 J. Wilson (E. coli D31 J. Wilson) | MIC K. pneumoniae 012-3131 (K. pneumoniae 012-3131) | MIC K. pneumoniae ATCC 27799 (K. pneumoniae ATCC 27799; ATCC 27799) | MIC K. pneumoniae K6 ATCC 700603 ([2]; ATCC 700603) | MIC K. pneumoniae ATCC 27799 (K. pneumoniae ATCC 27799; ¼ Muller-Hinton medium) | MIC K. pneumoniae K6 ATCC 700603 ([2]; ¼ Muller-Hinton medium) |
| --- | --- | --- | --- | --- | --- | --- | --- | --- | --- | --- | --- |
| 1 to 4 mg/L | CC[C@H](C)[C@H](NC(=O)[C@H](Cc1ccc(O)cc1)NC(=O)[C@H](CC(N)=O)NC(=O)[C@@H](N)CCCN)C(=O)N[C@@H](CCCN)C(=O)N[C@@H](CCCNC(=N)N)C(=O)N1CCC[C@H]1C(=O)N1CCC[C@H]1C(=O)N[C@@H](CCCNC(=N)N)C(=O)N1CCC[C@H]1C(=O)N[C@@H](CCCNC(=N)N)C(=O)N1CCC[C@H]1C(=O)N[C@@H](CC(C)C)C(=O)N[C@@H](Cc1ccc(O)cc1)C(=O)N1CCC[C@H]1C(=O)N1CCC[C@H]1C(=O)N[C@@H](CCCCN)C(=O)N[C@@H](CC(=O)O)C(=O)N[C@H](C(N)=O)C(C)C [SEQ ID NO. 113, ONYIORPPRPRPLYPPKDV-NH2] (H-[Orn]NYI[Orn]RPPRPRPLYPPKDV-NH2) |  |  |  |  |  |  |  |  |  |  |
|  | CC[C@H](C)[C@H](NC(=O)[C@H](CCCNC(=N)N)NC(=O)[C@H](CCCNC(=N)N)NC(=O)[C@@H]1CCCN1C(=O)[C@@H]1CCCN1C(=O)[C@H](CCCNC(=N)N)NC(=O)[C@@H]1CCCN1C(=O)[C@H](CCCNC(=N)N)NC(=O)[C@@H]1C[C@@H](O)CN1C(=O)[C@H](CC(C)C)NC(=O)[C@H](Cc1ccc(O)cc1)NC(=O)[C@@H]1CCCN1C(=O)[C@@H]1CCCN1C(=O)[C@H](CCCCN)NC(=O)[C@H](CC(=O)O)NC(=O)[C@@H](N)C(C)C)C(=O)N[C@@H](Cc1ccc(O)cc1)C(=O)N[C@@H](CC(N)=O)C(=O)N[C@@H](CCCNC(=N)N)C(=O)O [compound 21] (H-VDKPPYL[Hyp]RPRPPRRIYNR-OH) | 16 mg/L (≈ 6.65 µM) | 16 mg/L (≈ 6.65 µM) | 16 mg/L (≈ 6.65 µM) | 64 mg/L (≈ 26.6 µM) | 32 mg/L (≈ 13.3 µM) | 32 mg/L (≈ 13.3 µM) | 128 mg/L (≈ 53.2 µM) | 64 mg/L (≈ 26.6 µM) |  |  |
|  | CC[C@H](C)[C@H](NC(=O)[C@H](CCCNC(=N)N)NC(=O)[C@H](CCCNC(=N)N)NC(=O)[C@@H]1CCCN1C(=O)[C@@H]1CCCN1C(=O)[C@H](CCCNC(=N)N)NC(=O)[C@@H]1CCCN1C(=O)[C@H](CCCNC(=N)N)NC(=O)[C@@H]1CCCN1C(=O)[C@H](CC(C)C)NC(=O)[C@H](Cc1ccc(O)cc1)NC(=O)[C@@H]1CCCN1C(=O)[C@@H]1C[C@@H](O)CN1C(=O)[C@H](CCCCN)NC(=O)[C@H](CC(=O)O)NC(=O)[C@@H](N)C(C)C)C(=O)N[C@@H](Cc1ccc(O)cc1)C(=O)N[C@@H](CC(N)=O)C(=O)N[C@@H](CCCNC(=N)N)C(=O)O [compound 23] (H-VDK[Hyp]PYLPRPRPPRRIYNR-OH) | 8 mg/L (≈ 3.32 µM) | 16 mg/L (≈ 6.65 µM) | 8 mg/L (≈ 3.32 µM) | 32 mg/L (≈ 13.3 µM) | 8 mg/L (≈ 3.32 µM) | 16 mg/L (≈ 6.65 µM) | 64 mg/L (≈ 26.6 µM) | 32 mg/L (≈ 13.3 µM) |  |  |
|  | H-VDKPPYLPRPKPPRRIYNNR-OH [compound 5] | 16 mg/L | 16 mg/L | 16 mg/L | 128 mg/L | 64 mg/L | 64 mg/L |  |  | 128 mg/L | 128 mg/L |
|  | H-VDKPPYLPRPRPPRPIYNR-OH [compound 20] | 8 mg/L | 16 mg/L | 8 mg/L | 32 mg/L | 4 mg/L | 64 mg/L | 64 mg/L | 128 mg/L |  |  |
|  | H-VDKPPYLPRPRPPRRIYNRN-OH [compound 16] | 8 mg/L | 16 mg/L | 4 mg/L | 32 mg/L | 32 mg/L | 32 mg/L | 128 mg/L | 64 mg/L |  |  |
